Experiments:
[1] = tested on: human lymphoblastoid cells; assay: Sensitivity of human lymphoblastoid cell lines selected by rs6990851 genotype (AA, AG, GG) to aromatase inhibitors; type: cell-based; conditions: rs6990851 GG versus AA and AG lymphoblastoid cells
[2] = tested on: letrozole resistant cells; assay: Sensitization of letrozole resistant cells by overexpression of CSMD1; type: cell-based; conditions: letrozole resistant cells overexpressing CSMD1
[3] = tested on: ERα+ breast cancer cells; assay: Sensitization of ERα+ breast cancer cells by overexpression of CSMD1; type: cell-based; conditions: ERα+ breast cancer cells overexpressing CSMD1
[4] = molecular target: T1, ERα (Homo sapiens, UniProt P03372); conditions: 0-40 μM, traces above the background
T1 sequence (P03372 1-595): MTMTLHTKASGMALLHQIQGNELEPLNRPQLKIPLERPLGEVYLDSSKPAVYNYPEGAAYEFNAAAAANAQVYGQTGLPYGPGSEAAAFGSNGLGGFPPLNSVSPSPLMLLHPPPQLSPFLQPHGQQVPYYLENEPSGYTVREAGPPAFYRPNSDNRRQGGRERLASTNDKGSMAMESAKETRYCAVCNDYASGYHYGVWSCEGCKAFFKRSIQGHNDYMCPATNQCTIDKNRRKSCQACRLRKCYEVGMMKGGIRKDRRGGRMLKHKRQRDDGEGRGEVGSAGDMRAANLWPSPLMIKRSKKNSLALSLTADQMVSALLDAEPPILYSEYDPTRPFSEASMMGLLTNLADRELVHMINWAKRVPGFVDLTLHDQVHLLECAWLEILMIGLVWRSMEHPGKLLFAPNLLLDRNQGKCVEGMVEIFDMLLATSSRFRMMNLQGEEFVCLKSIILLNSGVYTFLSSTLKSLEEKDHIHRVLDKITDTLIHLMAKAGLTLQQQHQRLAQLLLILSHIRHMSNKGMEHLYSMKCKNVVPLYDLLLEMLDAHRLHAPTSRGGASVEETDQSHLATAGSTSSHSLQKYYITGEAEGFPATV

[5] = molecular target: T1, ERα; conditions: FIG. 7, ERα/GADPH fold change

CC(C)(C#N)c1cc(Cn2cncn2)cc(C(C)(C)C#N)c1 [anastrozole]
sensitivity of homozygous GG variant cells to treatment [1]: more sensitive
sensitization by CSMD1 overexpression [2]: sensitized
sensitization by CSMD1 overexpression [3]: sensitized

N#Cc1ccc(C(c2ccc(C#N)cc2)n2cncn2)cc1 [letrozole]
sensitivity of homozygous GG variant cells to treatment [1]: not observed
sensitization by CSMD1 overexpression [2]: not
direct binding to ERα (SPR sensograms) [4]: No interactions were observed
ERα degradation [5]: not

Source: patent US10815534B2, “Methods and materials for treating estrogen receptor positive breast cancer” (Mayo Foundation for Medical Education and Research, priority 2016, dated 2020)
